Experimental data taken from patent US6479520B1, “Method of treating a patient having precancerous lesions with phenyl pyridinone derivatives” (Cell Pathways, Inc., priority 1995, dated 2002).

melting point | Structure (SMILES)
196 to 197 °C | CCCOc1cc(SC)ccc1-c1ccc(C#N)c(=O)[nH]1 [2(a), 3-Cyano-6-(4-methylthio-2-propoxyphenyl)-2(1H)-pyridinone]
183 to 183.5 °C | CCCOc1cc(OC)ccc1-c1ccc(C#N)c(=O)[nH]1 [9(a), 3-Cyano-6-(4-methoxy-2-propoxyphenyl)-2(1H)-pyridinone]
